According to ChEMBL document CHEMBL5212743, “Selectivity Literature for EUbOPEN Chemogenomics Library wave 3” (2023):
Each block holds one molecule with its values, some of them ahead of it.

What was measured:
[1] = biological target: Rho-associated protein kinase 1 (Homo sapiens) (UniProt Q13464); assay: Selectivity interaction (KinomeScan (DiscoverX)) EUB0000545a ROCK1; conditions: at 1 µM
[2] = biological target: Dual specificity tyrosine-phosphorylation-regulated kinase 1B (Homo sapiens, UniProt Q9Y463); assay: Selectivity interaction (KinomeScan (DiscoverX)) EUB0000545a DYRK1B; conditions: at 1 µM
[3] = biological target: Focal adhesion kinase 1 (Homo sapiens, UniProt Q05397); assay: Selectivity interaction (KinomeScan (DiscoverX)) EUB0000545a PTK2; conditions: at 1 µM
[4] = biological target: T1, Alpha-1D adrenergic receptor (Homo sapiens, UniProt P25100); assay: Selectivity interaction (GPCR panel (PDSP screen)) EUB0000545a ADRA1D
T1 sequence (P25100 whole entry): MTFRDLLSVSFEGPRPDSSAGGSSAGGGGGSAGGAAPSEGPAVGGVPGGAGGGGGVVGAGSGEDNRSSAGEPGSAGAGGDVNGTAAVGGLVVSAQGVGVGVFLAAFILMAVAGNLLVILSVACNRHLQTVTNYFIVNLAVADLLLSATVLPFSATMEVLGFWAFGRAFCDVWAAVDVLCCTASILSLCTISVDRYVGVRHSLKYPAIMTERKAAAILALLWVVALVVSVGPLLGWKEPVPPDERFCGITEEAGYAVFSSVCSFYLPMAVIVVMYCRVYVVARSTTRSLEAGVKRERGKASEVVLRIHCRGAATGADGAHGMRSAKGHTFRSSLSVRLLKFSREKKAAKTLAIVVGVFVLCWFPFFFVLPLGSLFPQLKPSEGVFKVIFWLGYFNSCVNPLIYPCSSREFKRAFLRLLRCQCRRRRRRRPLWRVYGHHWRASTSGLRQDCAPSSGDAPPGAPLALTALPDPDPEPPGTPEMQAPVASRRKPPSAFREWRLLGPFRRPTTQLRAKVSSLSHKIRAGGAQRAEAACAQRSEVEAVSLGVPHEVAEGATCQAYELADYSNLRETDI

[5] = biological target: Phosphatidylinositol 4-kinase beta (Homo sapiens) (UniProt Q9UBF8); assay: Selectivity interaction (KinomeScan (DiscoverX)) EUB0000707a PI4KB; conditions: at 1 µM
[6] = biological target: T2, Gamma-aminobutyric acid receptor subunit alpha-1 (Homo sapiens, UniProt P14867); assay: (§1) Selectivity interaction (GPCR panel (PDSP screen)) EUB0000707a GABRA1
T2 sequence (P14867 whole entry): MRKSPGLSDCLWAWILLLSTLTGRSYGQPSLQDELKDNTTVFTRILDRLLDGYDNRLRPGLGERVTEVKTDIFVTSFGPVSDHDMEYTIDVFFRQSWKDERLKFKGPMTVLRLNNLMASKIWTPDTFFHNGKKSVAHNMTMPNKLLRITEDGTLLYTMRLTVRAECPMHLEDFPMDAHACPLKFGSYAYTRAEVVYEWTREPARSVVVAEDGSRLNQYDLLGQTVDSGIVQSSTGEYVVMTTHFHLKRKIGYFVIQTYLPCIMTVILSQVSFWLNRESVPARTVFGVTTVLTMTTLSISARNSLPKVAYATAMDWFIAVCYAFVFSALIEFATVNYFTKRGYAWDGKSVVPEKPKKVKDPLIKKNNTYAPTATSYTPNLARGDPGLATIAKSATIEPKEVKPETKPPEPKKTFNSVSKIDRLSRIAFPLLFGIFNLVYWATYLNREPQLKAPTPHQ

[7] = test system: Hepatocyte growth factor receptor (Homo sapiens), P08581 [M1250T]; assay: (§2) Selectivity interaction (KinomeScan (DiscoverX)) EUB0000707a MET; conditions: at 1 µM
[8] = biological target: Hepatocyte growth factor receptor (Homo sapiens) (UniProt P08581); assay: as §2; conditions: at 1 µM
[9] = biological target: T2, Gamma-aminobutyric acid receptor subunit alpha-1; assay: as §1; remark: listed apart in the source
[10] = biological target: Interleukin-1 receptor-associated kinase 4 (Homo sapiens) (UniProt Q9NWZ3); assay: Selectivity interaction (KinomeScan (DiscoverX)) EUB0000707a IRAK4; conditions: at 1 µM
[11] = biological target: T3, Adenosine receptor A3 (Homo sapiens, UniProt P0DMS8); assay: Selectivity interaction (Eurofins-Panlabs radioligand binding assay ) EUB0000307b ADORA3
T3 sequence (P0DMS8 whole entry): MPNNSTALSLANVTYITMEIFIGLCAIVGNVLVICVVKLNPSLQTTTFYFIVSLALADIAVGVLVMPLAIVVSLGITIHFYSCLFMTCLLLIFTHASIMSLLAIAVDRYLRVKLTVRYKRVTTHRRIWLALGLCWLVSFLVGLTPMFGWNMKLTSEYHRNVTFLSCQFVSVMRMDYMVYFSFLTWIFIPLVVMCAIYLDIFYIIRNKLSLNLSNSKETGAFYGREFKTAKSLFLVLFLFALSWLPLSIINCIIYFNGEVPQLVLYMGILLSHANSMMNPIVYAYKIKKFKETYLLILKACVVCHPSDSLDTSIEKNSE

[12] = biological target: Epithelial discoidin domain-containing receptor 1 (Homo sapiens, UniProt Q08345); assay: Selectivity interaction (KinomeScan (DiscoverX)) EUB0000307b DDR1; conditions: at 1 µM
[13] = biological target: Prostaglandin E2 receptor EP4 subtype (Homo sapiens, UniProt P35408); assay: Selectivity interaction (Eurofins-Panlabs radioligand binding assay ) EUB0000307b PTGER4
[14] = biological target: Serine/threonine-protein kinase WNK4 (Homo sapiens) (UniProt Q96J92); assay: Selectivity interaction (KinomeScan (DiscoverX)) EUB0000307b WNK4; conditions: at 1 µM
Serine/threonine-protein kinase WNK4 (Homo sapiens), sequence (Q96J92 whole entry): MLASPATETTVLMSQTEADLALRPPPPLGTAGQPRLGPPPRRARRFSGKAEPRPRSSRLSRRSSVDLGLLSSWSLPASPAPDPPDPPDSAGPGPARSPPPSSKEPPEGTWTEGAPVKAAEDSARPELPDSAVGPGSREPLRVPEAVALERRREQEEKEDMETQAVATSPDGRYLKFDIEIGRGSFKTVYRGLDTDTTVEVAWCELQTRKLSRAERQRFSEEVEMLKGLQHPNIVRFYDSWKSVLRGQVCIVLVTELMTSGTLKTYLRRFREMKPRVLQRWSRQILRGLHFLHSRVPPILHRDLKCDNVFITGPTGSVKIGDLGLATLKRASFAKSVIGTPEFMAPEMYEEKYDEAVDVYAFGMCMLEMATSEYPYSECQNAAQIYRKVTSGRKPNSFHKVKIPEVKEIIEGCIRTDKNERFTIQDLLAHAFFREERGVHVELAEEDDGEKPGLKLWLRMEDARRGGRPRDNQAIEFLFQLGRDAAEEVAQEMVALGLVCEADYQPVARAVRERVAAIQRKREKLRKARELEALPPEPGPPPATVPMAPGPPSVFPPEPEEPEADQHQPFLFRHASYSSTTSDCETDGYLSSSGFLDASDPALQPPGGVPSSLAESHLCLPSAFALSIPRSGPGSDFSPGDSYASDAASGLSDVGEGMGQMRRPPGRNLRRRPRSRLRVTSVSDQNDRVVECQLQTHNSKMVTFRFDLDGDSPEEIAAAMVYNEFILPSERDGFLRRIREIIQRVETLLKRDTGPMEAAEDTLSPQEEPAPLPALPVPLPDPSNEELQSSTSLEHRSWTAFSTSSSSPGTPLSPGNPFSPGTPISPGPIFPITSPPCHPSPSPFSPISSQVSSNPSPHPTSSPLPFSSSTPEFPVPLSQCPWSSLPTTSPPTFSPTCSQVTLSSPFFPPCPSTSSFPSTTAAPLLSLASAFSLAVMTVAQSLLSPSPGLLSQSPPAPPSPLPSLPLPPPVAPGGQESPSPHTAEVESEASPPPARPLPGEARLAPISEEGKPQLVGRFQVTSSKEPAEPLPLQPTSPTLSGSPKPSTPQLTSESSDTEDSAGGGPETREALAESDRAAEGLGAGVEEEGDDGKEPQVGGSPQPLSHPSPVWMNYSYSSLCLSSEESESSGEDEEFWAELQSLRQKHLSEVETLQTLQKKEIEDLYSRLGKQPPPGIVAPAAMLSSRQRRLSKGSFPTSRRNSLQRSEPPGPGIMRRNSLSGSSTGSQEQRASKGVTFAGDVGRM

Hepatocyte growth factor receptor (Homo sapiens), P08581 [M1250T], sequence (P08581 whole entry M1250T): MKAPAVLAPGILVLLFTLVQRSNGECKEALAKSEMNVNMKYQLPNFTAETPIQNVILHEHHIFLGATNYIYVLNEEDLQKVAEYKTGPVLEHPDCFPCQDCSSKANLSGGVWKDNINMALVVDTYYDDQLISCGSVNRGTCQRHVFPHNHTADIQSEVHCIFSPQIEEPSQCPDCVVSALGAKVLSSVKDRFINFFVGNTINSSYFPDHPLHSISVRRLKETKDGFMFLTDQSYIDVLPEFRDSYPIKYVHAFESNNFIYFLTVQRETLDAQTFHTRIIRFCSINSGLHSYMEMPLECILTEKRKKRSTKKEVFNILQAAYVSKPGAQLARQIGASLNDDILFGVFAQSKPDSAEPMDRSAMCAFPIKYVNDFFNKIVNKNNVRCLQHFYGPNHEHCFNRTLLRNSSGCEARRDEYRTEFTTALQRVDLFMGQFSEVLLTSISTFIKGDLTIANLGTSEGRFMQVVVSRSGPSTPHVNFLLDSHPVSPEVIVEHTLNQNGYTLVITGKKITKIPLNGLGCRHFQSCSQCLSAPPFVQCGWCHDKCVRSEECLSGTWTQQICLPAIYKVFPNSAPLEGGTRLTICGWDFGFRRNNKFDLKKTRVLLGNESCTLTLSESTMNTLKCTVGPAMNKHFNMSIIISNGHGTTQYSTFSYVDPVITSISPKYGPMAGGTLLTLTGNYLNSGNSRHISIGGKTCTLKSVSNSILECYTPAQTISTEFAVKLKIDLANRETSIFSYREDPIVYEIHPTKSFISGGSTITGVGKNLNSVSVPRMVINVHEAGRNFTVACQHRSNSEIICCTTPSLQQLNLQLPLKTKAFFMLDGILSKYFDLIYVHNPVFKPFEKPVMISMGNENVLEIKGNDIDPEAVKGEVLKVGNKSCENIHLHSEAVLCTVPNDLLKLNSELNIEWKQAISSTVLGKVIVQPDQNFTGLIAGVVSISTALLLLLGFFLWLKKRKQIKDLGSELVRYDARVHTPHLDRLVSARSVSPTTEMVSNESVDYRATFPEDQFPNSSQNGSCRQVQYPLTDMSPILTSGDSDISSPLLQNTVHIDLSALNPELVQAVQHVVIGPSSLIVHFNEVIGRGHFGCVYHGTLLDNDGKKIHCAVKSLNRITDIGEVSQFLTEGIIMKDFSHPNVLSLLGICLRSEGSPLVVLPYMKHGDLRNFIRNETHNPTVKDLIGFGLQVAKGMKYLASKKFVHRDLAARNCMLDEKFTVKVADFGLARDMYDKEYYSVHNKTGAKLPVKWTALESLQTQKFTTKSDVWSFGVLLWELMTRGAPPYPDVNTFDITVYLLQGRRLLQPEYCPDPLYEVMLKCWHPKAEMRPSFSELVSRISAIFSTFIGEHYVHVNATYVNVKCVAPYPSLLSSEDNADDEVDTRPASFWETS
Epithelial discoidin domain-containing receptor 1, sequence (Q08345 whole entry, the tested form may be a part): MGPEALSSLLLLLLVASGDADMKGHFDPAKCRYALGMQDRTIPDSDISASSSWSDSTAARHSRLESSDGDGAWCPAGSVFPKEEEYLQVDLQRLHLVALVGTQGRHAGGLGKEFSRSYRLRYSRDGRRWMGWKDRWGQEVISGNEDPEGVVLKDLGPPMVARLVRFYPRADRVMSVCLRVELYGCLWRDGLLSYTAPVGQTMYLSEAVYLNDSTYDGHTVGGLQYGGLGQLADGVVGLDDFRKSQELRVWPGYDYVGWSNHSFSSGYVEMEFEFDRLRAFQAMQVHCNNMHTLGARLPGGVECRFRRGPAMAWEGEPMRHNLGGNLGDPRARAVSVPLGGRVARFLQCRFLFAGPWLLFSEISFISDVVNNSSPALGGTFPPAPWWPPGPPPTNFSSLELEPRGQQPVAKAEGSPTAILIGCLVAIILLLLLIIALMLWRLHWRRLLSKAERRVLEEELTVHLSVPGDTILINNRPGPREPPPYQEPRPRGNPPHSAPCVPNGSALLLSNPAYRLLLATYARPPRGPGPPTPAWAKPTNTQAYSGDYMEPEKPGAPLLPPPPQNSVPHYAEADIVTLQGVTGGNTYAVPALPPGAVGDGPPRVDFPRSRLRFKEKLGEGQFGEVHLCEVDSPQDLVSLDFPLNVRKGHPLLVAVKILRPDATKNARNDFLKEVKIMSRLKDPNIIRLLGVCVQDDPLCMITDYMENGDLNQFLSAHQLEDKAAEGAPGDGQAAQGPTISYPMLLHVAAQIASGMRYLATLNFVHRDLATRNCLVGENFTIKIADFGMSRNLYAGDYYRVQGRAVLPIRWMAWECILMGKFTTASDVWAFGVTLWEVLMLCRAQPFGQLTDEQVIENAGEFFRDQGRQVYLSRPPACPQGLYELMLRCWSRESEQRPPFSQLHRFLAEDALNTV
Dual specificity tyrosine-phosphorylation-regulated kinase 1B, sequence (Q9Y463 whole entry, looked up): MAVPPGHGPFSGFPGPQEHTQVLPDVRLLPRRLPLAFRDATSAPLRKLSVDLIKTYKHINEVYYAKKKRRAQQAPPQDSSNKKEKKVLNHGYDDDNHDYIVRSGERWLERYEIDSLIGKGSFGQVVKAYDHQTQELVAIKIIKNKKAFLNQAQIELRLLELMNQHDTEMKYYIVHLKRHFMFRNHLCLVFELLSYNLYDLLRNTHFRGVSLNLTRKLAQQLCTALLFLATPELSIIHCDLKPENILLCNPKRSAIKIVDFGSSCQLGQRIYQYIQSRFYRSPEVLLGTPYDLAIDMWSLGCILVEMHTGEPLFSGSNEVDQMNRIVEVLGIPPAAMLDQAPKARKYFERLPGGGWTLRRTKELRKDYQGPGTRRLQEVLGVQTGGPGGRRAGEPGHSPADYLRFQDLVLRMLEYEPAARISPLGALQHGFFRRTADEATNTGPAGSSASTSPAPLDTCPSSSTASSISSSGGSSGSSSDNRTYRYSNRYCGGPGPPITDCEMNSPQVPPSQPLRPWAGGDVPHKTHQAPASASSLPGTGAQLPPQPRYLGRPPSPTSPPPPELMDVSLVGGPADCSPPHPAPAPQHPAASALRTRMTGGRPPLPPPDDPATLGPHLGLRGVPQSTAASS
Interleukin-1 receptor-associated kinase 4 (Homo sapiens), sequence (Q9NWZ3 whole entry): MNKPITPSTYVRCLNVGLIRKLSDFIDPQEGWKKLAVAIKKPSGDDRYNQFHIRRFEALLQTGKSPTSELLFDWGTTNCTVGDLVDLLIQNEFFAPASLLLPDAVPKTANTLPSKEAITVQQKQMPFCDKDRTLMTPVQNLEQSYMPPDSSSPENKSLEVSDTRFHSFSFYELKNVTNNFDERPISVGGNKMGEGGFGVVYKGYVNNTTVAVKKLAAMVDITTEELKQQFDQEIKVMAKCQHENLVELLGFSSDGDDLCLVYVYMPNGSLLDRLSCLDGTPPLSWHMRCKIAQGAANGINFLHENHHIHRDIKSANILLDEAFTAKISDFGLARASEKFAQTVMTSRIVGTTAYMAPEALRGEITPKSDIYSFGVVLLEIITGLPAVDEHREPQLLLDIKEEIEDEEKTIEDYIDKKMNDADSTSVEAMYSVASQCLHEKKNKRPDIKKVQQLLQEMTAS

% of control [1]: 0.5%
% of control [2]: 37%
% of control [3]: 17%
Ki [4]: > 10000 nM
Compound: CC(=O)N1CCC(c2ccc(C(=O)NC3=NCCN3)cc2C(F)(F)F)CC1 [BI 0054]

% of control [5]: 30%
Ki [6]: 21 nM
% of control [7]: 27%
% of control [8]: 24%
Ki [9]: 21 nM
% of control [10]: 7.5%
Compound: CC1=C(C#N)C(c2ccc3c(c2)c(NC(=O)c2ccccc2C)nn3C)C(C#N)=C(C)N1 [BAY-974]

IC50 [11]: 1140 nM
% of control [12]: 1.5%
IC50 [13]: 1120 nM
% of control [14]: 0%
Compound: Cc1c(NC(=O)c2cc(C(N)=O)nc3cc(F)ccc23)c(C(F)(F)F)nn1Cc1ccc(C#N)cc1 [BAY-876]
